Assay results as given in ChEMBL document CHEMBL1201862, “PubChem BioAssay data set” (2004).
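Protocol summary: plate cells (96-well), add compound at 5 concentrations, incubate 48 h, interpolate endpoints linearly. GI50: concentration for 50% inhibition of growth.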 Calls of active or inactive are those of the source. Cut-off read from the data, not from the text of the source: active = GI50 up to about 1.1 µM and inactive = higher.

Assays:
Experiment in all cases: NCI tumour cell line growth inhibition, 48 h
[1] = test system: A549
[2] = test system: ACHN
[3] = test system: BT-549
[4] = test system: COLO 205
[5] = test system: HCT-116
[6] = test system: HT-29
[7] = test system: Hs-578T
[8] = test system: M14
[9] = test system: NCI-H226
[10] = test system: NCI-H522
[11] = test system: NCI/ADR-RES
[12] = test system: RPMI-8226
[13] = test system: SF-295
[14] = test system: SK-MEL-28
[15] = test system: SK-OV-3
[16] = test system: SN12C
[17] = test system: SNB-75
[18] = test system: SR
[19] = test system: T47D
[20] = test system: TK-10

Structure (SMILES)	GI50 [1]	GI50 [2]	GI50 [3]	GI50 [4]	GI50 [5]	GI50 [6]	GI50 [7]	GI50 [8]	GI50 [9]	GI50 [10]	GI50 [11]	GI50 [12]	GI50 [13]	GI50 [14]	GI50 [15]	GI50 [16]	GI50 [17]	GI50 [18]	GI50 [19]	GI50 [20]
COc1cc2c(cc1C)NC(=O)/C2=C/c1c(Cl)[nH]c2cc(C)c(OC)cc12	4.55 µM (inactive)	2.25 µM (inactive)	1.36 µM (inactive)	2.33 µM (inactive)	3.85 µM (inactive)	4.29 µM (inactive)	8.65 µM (inactive)	2.15 µM (inactive)	17.2 µM (inactive)	5.25 µM (inactive)	3.19 µM (inactive)	3.98 µM (inactive)	1.21 µM (inactive)	8.13 µM (inactive)	1.3 µM (inactive)	1.86 µM (inactive)	2.34 µM (inactive)	0.428 µM (active)	2.23 µM (inactive)	7.1 µM (inactive)
C/C(CC(O)(C(F)(F)F)C(F)(F)F)=N\O	> 10 µM (inactive)	> 10 µM (inactive)	> 10 µM (inactive)	> 10 µM (inactive)	> 10 µM (inactive)	> 10 µM (inactive)	> 10 µM (inactive)	> 10 µM (inactive)	> 10 µM (inactive)	> 10 µM (inactive)	> 10 µM (inactive)	> 10 µM (inactive)	> 10 µM (inactive)	> 10 µM (inactive)	> 10 µM (inactive)	> 10 µM (inactive)	> 10 µM (inactive)	> 10 µM (inactive)	> 10 µM (inactive)	> 10 µM (inactive)
Nc1ncnc2c1ncn2[C@@H]1O[C@H](COC(c2ccccc2)(c2ccccc2)c2ccccc2)[C@@H](OC(=S)Oc2ccccc2)[C@@H]1F	15 µM (inactive)	10.7 µM (inactive)	4.95 µM (inactive)	12.4 µM (inactive)	3.81 µM (inactive)	6.67 µM (inactive)	6.28 µM (inactive)	5.53 µM (inactive)	11.4 µM (inactive)	2.24 µM (inactive)	4.16 µM (inactive)	3.49 µM (inactive)	7.98 µM (inactive)	15.2 µM (inactive)	14.1 µM (inactive)	4.46 µM (inactive)	14.8 µM (inactive)	2.72 µM (inactive)	8.2 µM (inactive)	17.6 µM (inactive)
COc1ccc(NS(=O)(=O)c2ccc(NC(NC(=O)CC(C)C)(C(F)(F)F)C(F)(F)F)cc2)nn1	> 100 µM (inactive)	> 100 µM (inactive)	> 100 µM (inactive)	> 100 µM (inactive)	> 100 µM (inactive)	> 100 µM (inactive)	> 100 µM (inactive)	> 100 µM (inactive)	> 100 µM (inactive)	> 100 µM (inactive)	> 100 µM (inactive)	> 100 µM (inactive)	> 100 µM (inactive)	> 100 µM (inactive)	> 100 µM (inactive)	> 100 µM (inactive)	> 100 µM (inactive)	> 100 µM (inactive)	> 100 µM (inactive)	> 100 µM (inactive)
COc1ccc(N2C(N)=C(C#N)C(C#N)(C#N)C2c2cccc([N+](=O)[O-])c2)cc1 (stereo not given)	18.3 µM (inactive)	14.2 µM (inactive)	17.9 µM (inactive)	10.7 µM (inactive)	9.91 µM (inactive)	13.9 µM (inactive)	24 µM (inactive)	17.3 µM (inactive)	19.8 µM (inactive)	7.14 µM (inactive)	21.1 µM (inactive)	11.6 µM (inactive)	19.1 µM (inactive)	8.57 µM (inactive)	20.2 µM (inactive)	16.1 µM (inactive)	18.8 µM (inactive)	8.47 µM (inactive)	12.6 µM (inactive)	16.6 µM (inactive)
COc1ccc(SCc2cc(OCc3ccccc3)c(OCc3ccccc3)c(OCc3ccccc3)c2)cc1	2.16 µM (inactive)	1.73 µM (inactive)	2.24 µM (inactive)	2.85 µM (inactive)	1.75 µM (inactive)	1.52 µM (inactive)	2.12 µM (inactive)	1.92 µM (inactive)	1.9 µM (inactive)	1.83 µM (inactive)	1.71 µM (inactive)	2.84 µM (inactive)	1.87 µM (inactive)	2.07 µM (inactive)	1.77 µM (inactive)	1.79 µM (inactive)	1.58 µM (inactive)	0.493 µM (active)	2.69 µM (inactive)	1.89 µM (inactive)
CC(=O)NC1C(OCc2ccccc2)OC(CO)C(O)C1OC(C)C(=O)N[C@@H](C)C(=O)N[C@H](CCC(=O)NCCNCCNc1c2ccccc2nc2cccc([N+](=O)[O-])c12)C(N)=O (stereo not given in full)	0.0244 µM (active)	0.0557 µM (active)	0.0698 µM (active)	< 0.0112 µM (active)	0.0214 µM (active)	0.0369 µM (active)	0.356 µM (active)	0.0993 µM (active)	0.149 µM (active)	< 0.01 µM (active)	1.73 µM (inactive)	0.0698 µM (active)	0.207 µM (active)	0.245 µM (active)	0.348 µM (active)	0.104 µM (active)	0.205 µM (active)	0.0794 µM (active)	0.0461 µM (active)	0.135 µM (active)
Cc1cc(C)c2c(O)cc(-c3ccc(Cl)cc3)nc2n1	30.6 µM (inactive)	48 µM (inactive)	23.6 µM (inactive)	24.7 µM (inactive)	24.2 µM (inactive)	19.9 µM (inactive)	> 100 µM (inactive)	25.7 µM (inactive)	> 100 µM (inactive)	46.8 µM (inactive)	> 31.8 µM (inactive)	30.3 µM (inactive)	28.2 µM (inactive)	28.3 µM (inactive)	84.9 µM (inactive)	> 33 µM (inactive)	33.2 µM (inactive)	37.6 µM (inactive)	40 µM (inactive)	> 100 µM (inactive)
O=C1/C(=C/c2ccccc2)CN(C(=O)CCN2CCCC2)C/C1=C\c1ccccc1	3.91 µM (inactive)	1.98 µM (inactive)	1.56 µM (inactive)	1.53 µM (inactive)	0.355 µM (active)	0.867 µM (active)	0.282 µM (active)	1.74 µM (inactive)	6 µM (inactive)	1.31 µM (inactive)	0.27 µM (active)	0.253 µM (active)	1.09 µM (active)	1.62 µM (inactive)	8.26 µM (inactive)	1.51 µM (inactive)	4.98 µM (inactive)	0.219 µM (active)	1.76 µM (inactive)	3.12 µM (inactive)
NCCC1([N+](=O)[O-])CCNCC1	> 100 µM (inactive)	> 100 µM (inactive)	> 100 µM (inactive)	> 100 µM (inactive)	> 100 µM (inactive)	> 100 µM (inactive)	> 100 µM (inactive)	> 100 µM (inactive)	> 100 µM (inactive)	> 86.5 µM (inactive)	> 100 µM (inactive)	> 100 µM (inactive)	> 100 µM (inactive)	> 26.8 µM (inactive)	> 100 µM (inactive)	> 100 µM (inactive)	> 100 µM (inactive)	> 100 µM (inactive)	> 100 µM (inactive)	> 100 µM (inactive)
COC(=O)C1=C(OC(=O)/C(=C/c2ccccc2)c2ccc(OC)cc2)C(C(=O)OC)[C@@]2(O)[C@@H](C(=O)OC)[C@H](C)C[C@@H]1[C@@H]2C(=O)OC (stereo not given in full)	50.1 µM (inactive)	> 100 µM (inactive)	21 µM (inactive)	> 100 µM (inactive)	> 100 µM (inactive)	> 100 µM (inactive)	20.6 µM (inactive)	> 100 µM (inactive)	> 100 µM (inactive)	35.3 µM (inactive)	> 100 µM (inactive)	> 100 µM (inactive)	> 100 µM (inactive)	> 100 µM (inactive)	80.4 µM (inactive)	> 100 µM (inactive)	24.2 µM (inactive)	> 100 µM (inactive)	> 100 µM (inactive)	> 100 µM (inactive)
CCOC(=O)C(CS)NC(=O)CCCCCCCC(=O)O (stereo not given)	> 100 µM (inactive)	78.3 µM (inactive)	> 100 µM (inactive)	> 100 µM (inactive)	> 100 µM (inactive)	> 100 µM (inactive)	> 100 µM (inactive)	> 100 µM (inactive)	> 100 µM (inactive)	> 100 µM (inactive)	> 100 µM (inactive)	> 100 µM (inactive)	> 100 µM (inactive)	> 100 µM (inactive)	> 100 µM (inactive)	> 100 µM (inactive)	0.724 µM (active)	> 100 µM (inactive)	> 100 µM (inactive)	> 100 µM (inactive)
Cc1cc(-c2nc3c(O)cccc3s2)ccc1N	19.1 µM (inactive)	17.2 µM (inactive)	22.1 µM (inactive)	38.7 µM (inactive)	20.4 µM (inactive)	21.8 µM (inactive)	18.2 µM (inactive)	16.7 µM (inactive)	31.6 µM (inactive)	17.2 µM (inactive)	19.9 µM (inactive)	45 µM (inactive)	25.9 µM (inactive)	57.9 µM (inactive)	39.1 µM (inactive)	27.2 µM (inactive)	83.6 µM (inactive)	25.5 µM (inactive)	74.5 µM (inactive)	26.8 µM (inactive)
CCC(=S)N(C)O	20.3 µM (inactive)	35.2 µM (inactive)	> 100 µM (inactive)	0.634 µM (active)	2.39 µM (inactive)	0.839 µM (active)	> 100 µM (inactive)	17.8 µM (inactive)	54.7 µM (inactive)	0.41 µM (active)	17.1 µM (inactive)	0.828 µM (active)	34.2 µM (inactive)	57.4 µM (inactive)	76.9 µM (inactive)	22 µM (inactive)	41 µM (inactive)	1.02 µM (active)	46.1 µM (inactive)	60.1 µM (inactive)
